{"source": "patent US10336809B2", "about": "“Peptides and combination of peptides for use in immunotherapy against various tumors” (immatics biotechnologies GmbH, priority 2015, dated 2019)", "data": [{"system": "CD8+ T cells", "test": "In vitro T-cell priming assay with aAPCs loaded with peptide/MHC complexes and anti-CD28 antibody, pMHC multimer readout", "format": "cell-based, human", "settings": "healthy HLA-A*02+ donors, positive donors", "text": "(§1) In order to obtain information regarding the immunogenicity of the TUMAPs of the present invention, the inventors performed investigations using an in vitro T-cell priming assay based on repeated stimulations of CD8+ T cells with artificial antigen presenting cells (aAPCs) loaded with peptide/MHC complexes and anti-CD28 antibody.\n(§2) In order to perform in vitro stimulations by artificial antigen presenting cells loaded with peptide-MHC complex (pMHC) and anti-CD28 antibody, the inventors first isolated CD8+ T cells from fresh HLA-A*02 leukapheresis products via positive selection using CD8 microbeads (Miltenyi Biotec, Bergisch-Gladbach, Germany) of healthy donors obtained from the University clinics Mannheim, Germany, after informed consent. PBMCs and isolated CD8+ lymphocytes were incubated in T-cell medium (TCM) until use consisting of RPMI-Glutamax (Invitrogen, Karlsruhe, Germany) supplemented with 10% heat inactivated human AB serum (PAN-Biotech, Aidenbach, Germany), 100 U/ml Penicillin/100 μg/ml Streptomycin (Cambrex, Cologne, Germany), 1 mM sodium pyruvate (CC Pro, Oberdorla, Germany), 20 μg/ml Gentamycin (Cambrex). 2.5 ng/ml IL-7 (PromoCell, Heidelberg, Germany) and 10 U/ml IL-2 (Novartis Pharma, Nürnberg, Germany) were also added to the TCM at this step. Generation of pMHC/anti-CD28 coated beads, T-cell stimulations and readout was performed in a highly defined in vitro system using four different pMHC molecules per stimulation condition and 8 different pMHC molecules per readout condition.\n(§3) The purified co-stimulatory mouse IgG2a anti human CD28 Ab 9.3 (Jung et al., 1987) was chemically biotinylated using Sulfo-N-hydroxysuccinimidobiotin as recommended by the manufacturer (Perbio, Bonn, Germany). Beads used were 5.6 μm diameter streptavidin coated polystyrene particles (Bangs Laboratories, Illinois, USA).\n(§4) pMHC used for positive and negative control stimulations were A*0201/MLA-001 (peptide […] (SEQ ID NO. 289) from modified Melan-A/MART-1) and A*0201/DDX5-001 ([…] from DDX5, SEQ ID NO. 290), respectively.\n(§5) 800.000 beads/200 μl were coated in 96-well plates in the presence of 4×12.5 ng different biotin-pMHC, washed and 600 ng biotin anti-CD28 were added subsequently in a volume of 200 μl. Stimulations were initiated in 96-well plates by co-incubating […] CD8+ T cells with 2×10^5 washed coated beads in 200 μl TCM supplemented with 5 ng/ml IL-12 (PromoCell) for 3 days at 37° C. Half of the medium was then exchanged by fresh TCM supplemented with 80 U/ml IL-2 and incubating was continued for 4 days at 37° C. This stimulation cycle was performed for a total of three times. For the pMHC multimer readout using 8 different pMHC molecules per condition, a two-dimensional combinatorial coding approach was used as previously described (Andersen et al., 2012) with minor modifications encompassing coupling to 5 different fluorochromes. Finally, multimeric analyses were performed by staining the cells with Live/dead near IR dye (Invitrogen, Karlsruhe, Germany), CD8-FITC antibody clone SK1 (BD, Heidelberg, Germany) and fluorescent pMHC multimers. For analysis, a BD LSRII SORP cytometer equipped with appropriate lasers and filters was used. Peptide specific cells were calculated as percentage of total CD8+ cells. Evaluation of multimeric analysis was done using the FlowJo software (Tree Star, Oregon, USA). In vitro priming of specific multimer+ CD8+ lymphocytes was detected by comparing to negative control stimulations.\n(§6) Exemplary flow cytometry results after TUMAP-specific multimer staining for 2 peptides of the invention are shown in FIG. 3 together with corresponding negative controls.", "values": [{"substance": "288 (SLYKGLLSV; listed as Homo sapiens) [compound 288]", "in vitro immunogenicity, donors": "++++ (>=70% = ++++)"}, {"substance": "287 (KIQEILTQV; listed as Homo sapiens) [compound 287]", "in vitro immunogenicity, donors": "+++ (50%-69% = +++)"}]}, {"system": "CD8+ T cells", "test": "In vitro T-cell priming assay with aAPCs loaded with peptide/MHC complexes and anti-CD28 antibody, pMHC multimer readout", "format": "cell-based, human", "settings": "healthy HLA-A*02+ donors, positive wells", "text": "as §1, §2, §3, §4, §5, §6", "values": [{"substance": "287 (KIQEILTQV; listed as Homo sapiens) [compound 287]", "in vitro immunogenicity, wells": "+ (<20% = +)"}]}, {"system": "CD8+ T cells", "test": "In vitro T-cell priming assay with aAPCs loaded with peptide/MHC complexes and anti-CD28 antibody, pMHC multimer readout", "format": "cell-based, human", "settings": "in vitro immunogenicity, HLA-A*02 restricted peptides, CD8+ T cells of healthy donors, pMHC multimer readout", "text": "as §1, §2, §3, §4, §5, §6", "values": [{"substance": "254 (ALGDKFLLRV; listed as Homo sapiens) [compound 254]", "Wells positive [%]": "+ (<20% = +)"}, {"substance": "255 (FLMKNSDLYGA; listed as Homo sapiens) [compound 255]", "Wells positive [%]": "+ (<20% = +)"}, {"substance": "29 (KMISAIPTL; listed as Homo sapiens) [compound 29]", "Wells positive [%]": "+ (<20% = +)"}, {"substance": "9 (SLITGQDLLSV; listed as Homo sapiens) [compound 9]", "Wells positive [%]": "+ (<20% = +)"}, {"substance": "101 (SLLEVNEASSV; listed as Homo sapiens) [compound 101]", "Wells positive [%]": "+ (<20% = +)"}, {"substance": "157 (ILQDGQFLV; listed as Homo sapiens) [compound 157]", "Wells positive [%]": "+ (<20% = +)"}, {"substance": "102 (GLYPVTLVGV; listed as Homo sapiens) [compound 102]", "Wells positive [%]": "+ (<20% = +)"}, {"substance": "34 (TLNTLDINL; listed as Homo sapiens) [compound 34]", "Wells positive [%]": "++++ (>=70% = ++++)"}, {"substance": "236 (KMSELQTYV; listed as Homo sapiens) [compound 236]", "Wells positive [%]": "+ (<20% = +)"}, {"substance": "246 (ALAGIVTNV; listed as Homo sapiens) [compound 246]", "Wells positive [%]": "+ (<20% = +)"}, {"substance": "66 (AMFPDTIPRV; listed as Homo sapiens) [compound 66]", "Wells positive [%]": "+ (<20% = +)"}, {"substance": "35 (VIIKGLEEI; listed as Homo sapiens) [compound 35]", "Wells positive [%]": "+ (<20% = +)"}, {"substance": "77 (ALYGNVQQV; listed as Homo sapiens) [compound 77]", "Wells positive [%]": "+ (<20% = +)"}, {"substance": "17 (GLLPSAESIKL; listed as Homo sapiens) [compound 17]", "Wells positive [%]": "+ (<20% = +)"}, {"substance": "97 (KLFEKSTGL; listed as Homo sapiens) [compound 97]", "Wells positive [%]": "+ (<20% = +)"}, {"substance": "4 (VLFGELPAL; listed as Homo sapiens) [compound 4]", "Wells positive [%]": "+ (<20% = +)"}, {"substance": "121 (ALYVQAPTV; listed as Homo sapiens) [compound 121]", "Wells positive [%]": "+ (<20% = +)"}, {"substance": "263 (SIIEYLPTL; listed as Homo sapiens) [compound 263]", "Wells positive [%]": "+ (<20% = +)"}, {"substance": "260 (ALNESLVEC; listed as Homo sapiens) [compound 260]", "Wells positive [%]": "+ (<20% = +)"}, {"substance": "39 (YLEDGFAYV; listed as Homo sapiens) [compound 39]", "Wells positive [%]": "++++ (>=70% = ++++)"}, {"substance": "242 (KLQEEIPVL; listed as Homo sapiens) [compound 242]", "Wells positive [%]": "+ (<20% = +)"}, {"substance": "14 (YTFSGDVQL; listed as Homo sapiens) [compound 14]", "Wells positive [%]": "+ (<20% = +)"}, {"substance": "264 (TLHDQVHLL; listed as Homo sapiens) [compound 264]", "Wells positive [%]": "+ (<20% = +)"}, {"substance": "233 (SLFESLEYL; listed as Homo sapiens) [compound 233]", "Wells positive [%]": "+ (<20% = +)"}, {"substance": "27 (GLLGKVTSV; listed as Homo sapiens) [compound 27]", "Wells positive [%]": "+ (<20% = +)"}, {"substance": "89 (SLAETIFIV; listed as Homo sapiens) [compound 89]", "Wells positive [%]": "+ (<20% = +)"}, {"substance": "50 (ILLSVLHQL; listed as Homo sapiens) [compound 50]", "Wells positive [%]": "+ (<20% = +)"}, {"substance": "257 (KLIDHQGLYL; listed as Homo sapiens) [compound 257]", "Wells positive [%]": "+ (<20% = +)"}, {"substance": "267 (YLLDMPLWYL; listed as Homo sapiens) [compound 267]", "Wells positive [%]": "+ (<20% = +)"}]}]}
